According to patent publication US10357577B2, “Bacterial nitroreductase enzymes and methods relating thereto” (AUCKLAND UNISERVICES LIMITED, priority 2010, dated 2019):
Entries after “also recorded” stand apart in the source; their conditions may differ.

Tests used:
[1] = test system: ONYX-411^WT infected HCT-116WT cells; assay: Cytopathic effect assay, control virus; type: cell-based, adenovirus; settings: metronidazole refreshed every 2 days, read on day 9
Method: (§1) FIG. 31 illustrates the cytoprotective effects of NfsB dependent activation of metronidazole by conditionally replicating virus ONYX411^NfsB. HCT-116WT cells were seeded overnight and the top wells were infected with 0.125 MOI for ONYX411-nfsB and 1 MOI for ONYX411-WT with 2-fold serial dilutions. 24 hrs following infection media was replaced with fresh αMEM containing 2% FCS and varying concentrations of metronidazole, which was refreshed every 2 days. On day 9 wells were fixed with 10% TCA and stained with SRB and cell density analysed.
(§2) HCT-116WT cells were seeded overnight and the top wells were infected with 0.125 MOI of the replication competent adenovirus ONYX411-nfsB and 1 MOI for ONYX411-WT with 2-fold serial dilutions ((Singleton et al, 2007, Cancer Gene Ther 14 (12): 953-967). 24 hrs following infection media was replaced with fresh αMEM containing 2% FCS and varying concentrations of metronidazole, which was refreshed every 2 days. On day 9 wells were fixed with 10% TCA and stained with SRB and cell density analysed.

[2] = test system: ONYX-411^NfsB infected HCT-116WT cells; assay: Cytopathic effect assay, replicating adenovirus expressing E. coli NfsB; type: cell-based; settings: metronidazole refreshed every 2 days, read on day 9
Method: as §1, §2

[3] = test system: nitroreductase NfsA-expressing HCT116 'activator' cells; assay: MCL (multicellular layer) bystander experiment, NfsA-dependent activation; type: cell-based, human
Method: Displacement of the Target cell survival curve to the left (T to Tc) is indicative of the presence of a cytotoxic metabolite(s) able to diffusible out of the sensitive activator (A) cell population. The prodrug concentrations for 10% survival (C10) of target cells (wild-type cells) grown without activators (T), targets in co-culture (TC) and activators (nfsA-expressing cells) in co-culture (AC) were determined by interpolation. BEE-Bystander effect efficiency calculates the drugs bystander effect: ((Log C10T−Log C10TC)/(Log C10T−Log C10AC)).
The prodrug concentrations for 10% survival (C10) of target cells (wild-type cells) grown without activators (T), and targets in co-culture (TC) and activators (NTR-expressing cells) in co-culture (AC) can be determined. The bystander effect of a test prodrug is measured by the bystander effect efficiency which can be calculated using the algorithm ((Log C10T−Log C10TC)/(Log C10T−Log C10AC)).
Millicell-CM membrane inserts (Millipore) were coated in calf-skin collagen type III (Sigma-Aldrich) to facilitate cell attachment. […] After exposure, inserts were disaggregated (0.07% trypsin, 10 min, 37° C., followed by 100 μg/ml DNAase I (Sigma-Aldrich). Cells were counted, resuspended and plated in P60 dishes to determine clonogenic survival. To discriminate clonogenic activator (NTR+) from target (NTR−) colonies cells were plated in non-selective medium (total cells) and medium containing 1 μM puromycin (activator cells). Colonies were grown in a 37° C. 5% CO2 incubator for 10 days before staining with methylene blue (2 g/liter in 50% v/v aqueous ethanol). Colonies containing >50 cells were counted as clonogenic survivors. Surviving fractions for each population was calculated as the plating efficiency for drug-treated MCLs/untreated controls. The drug concentrations for 10% survival (C10) of target cells grown without activators (T), targets in co-culture (Tc) and activators in co-culture (Ac) was determined by interpolation.

[4] = Human plasma concentration-time (AUC) and tolerability; type: in vivo; settings: 50 μM metronidazole exposure, achievable in humans, read-out: human AUC equivalent to the protective exposure
[5] = test system: 25% HCT-116^nfsB/75% HCT-116^WT or 25% HCT-116^nfsA/75% HCT-116^WT tumours; assay: Tumour xenograft growth delay; type: in vivo, NIH-III nude mice; settings: single dose i.p. PR-104 1000 μmol/kg
Method: FIG. 18 illustrates in vivo activity of PR-104 in 25% nfsB or 25% nfsA tumours. Average tumour volume and Kaplan-Meier growth plots for tumours grown subcutaneously on NIH-III mice. Tumours were composed of either 25% HCT-116^nfsB/75% HCT-116^WT or 25% HCT-116^nfsA/75% HCT-116^WT. When tumours reached 7 mm^2 mice (n=8-11 per group) were randomly assigned to a treatment group and injected with a single dose (i.p.) of PBS (control) or PR-104 (1000 μmol/kg). Tumour measurements were recorded twice weekly and mice were culled when tumours exceeded a mean diameter of […].
Specific pathogen-free female homozygous NIH-III nude mice (CrI:NIH-Lyst^bgFoxn1^nuBtk^xid; Charles River Laboratories) were housed in Techniplast microisolator cages and fed Harlan Teklad diet 2018i. […] Tumours were monitored using electronic calipers and mice were randomised into treatment groups once their tumours reached 7×7 mm in diameter. Tumour size and body weight were determined three times weekly. Tumour volume was calculated as π (I×w^2)/6, where I is the major axis and w is the perpendicular minor axis. […] The median time for tumours to increase in volume 4-fold relative to pretreatment volume (RTV-4) was determined, and the specific growth delay (SGD) was calculated as the percentage increase in RTV-4 for treated versus control groups. […]

NfsB(Ec) = molecular target: T1, NfsB(Ec) (Escherichia coli, UniProt P38489); assay: Growth Inhibition assay, NTR over-expressing E. coli SOS-R2; type: cell-based; settings: elevated substrate concentrations (400 μM F-MISO, 600 μM HX4)
T1 construct: expressed in transfected cells; host or cells: E. coli SOS-R2 (endogenous nfsA, nfsB, nemA and azoR deleted) carrying pUCX::ntr
T1 sequence (P38489 whole entry): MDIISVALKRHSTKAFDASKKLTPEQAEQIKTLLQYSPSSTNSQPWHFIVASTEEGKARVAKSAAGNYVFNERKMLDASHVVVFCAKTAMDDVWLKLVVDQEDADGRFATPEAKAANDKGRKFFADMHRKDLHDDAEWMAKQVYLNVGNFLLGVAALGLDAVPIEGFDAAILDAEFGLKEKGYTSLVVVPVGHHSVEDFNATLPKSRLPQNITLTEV
Method: FIG. 34 (B) illustrates the metabolism of F-MISO by members of the 58 NTR over-expression library as measured by Growth Inhibition assay as described for FIG. 34A except that cells were challenged with 400 μM F-MISO.
FIG. 35 (B) illustrates the metabolism of HX4 by members of the 58 NTR over-expression library as measured by Growth Inhibition assay as described for FIG. 35A except that cells were challenged with 600 μM HX4.
Individual microtiter plate wells containing 200 μl LB+amp, 0.4% glucose were inoculated with SOS-R2 pUCX::ntr strains and incubated overnight at 30° C., 200 rpm. Ten μl of the overnight culture were used to inoculate 190 μl of fresh assay media (LB+amp, 0.05 mM IPTG, 0.2% glucose) and incubated at 30° C., 200 rpm for 3 h. The 200 μl culture was split into 100 μl duplicates which were supplemented with either 100 μl challenge media (assay media+250 uM EF5+2% DMSO) or 100 μl control media (assay media+2% DMSO). Initial OD600 readings were recorded and then plates incubated at 30° C., 200 rpm for 4 h after which final OD600 readings were taken and used to calculate strains respective growth inhibition in EF5 presence.

[6] = test system: HCT116 cells expressing E. coli NfsB; assay: Monolayer antiproliferative (IC50) assay, NTR-expressing HCT116; type: cell-based, human; settings: 18 hrs exposure, 5 days regrowth
Method: (§3) FIGS. 10 (B) and 10 (C) illustrates the results of evaluation of 2-nitroimidazole clinical imaging candidates with E. coli and non-E. coli NTRs. Stably-expressing cells were treated with varying concentration of 2-nitroimidazole prodrugs diluted in αMEM+5% FCS+P/S. Cells were exposed to prodrug for 18 hrs, washed and left to regrow for 5 days. IC50 was determined as the concentration of prodrug required to inhibit cell growth by 50% of untreated controls. IC50 values are mean for ≥2 independent experiments. WT:NTR ratio-ratio of IC50 means from WT cells versus NTR-expressing cell lines.
as §3, with “FIG. 21” for “FIGS. 10 (B) and 10 (C)”, “antiproliferative activity (IC50 value)” for “the results”, “prodrug” for “evaluation of 2-nitroimidazole clinical imaging”, “nitroreductases.” for “NTRs.”, “prodrug” for “2-nitroimidazole prodrugs”, “ratio-interexperimental ratio” for “ratio-ratio”
(§4) Isolated NTR gene sequences were subject to PCR and introduced in the bicistronic plasmid F579 via Gateway cloning (Invitrogen) as described by Prosser et al. (2010, Biochem Pharmacol, 79, 678-687). Stably transfected cell lines were created by transfection of the relevant plasmid using FuGENE 6 Transfection Reagent (Roche). Transfected cell populations were maintained by passage in puromycin
(§5) Cells were passaged in alpha-Minimal Essential Media, (αMEM; Gibco) supplemented with 5% FBS, (GIBCO NZ) without antibiotics. Cell were passaged for <3 months from frozen stocks and confirmed Mycoplasma free (PCR-ELISA; Roche Diagnostics). Cells were aliquoted into the 96-well plate (100 μL/well) and cells were left to attach (≥4 hrs). […] Plates were read on an ELx 808 Absorbance Microplate Reader (Bio-Tek Instruments). Absorbance was measured at 490 nm and 450 nm (final absorbance 490-450). […]

[7] = test system: HCT116 cells expressing NfsB homologue P. putida 2432; assay: as above; type: cell-based, human; settings: 18 hrs exposure, 5 days regrowth
Method: as §3, §4
as §5, with “Diagnostics).” for “Diagnostics). Cells were aliquoted into the 96-well plate (100 μL/well) and cells were left to attach (≥4 hrs).”

## Cc1ncc([N+](=O)[O-])n1CCO [Metronidazole, 2-(2-methyl-5-nitro-1H-imidazol-1-yl)ethanol]
[1]
  effect on oncolytic activity (in words): no inhibitory effects
[2]
  concentration range with reduction in oncolytic activity: 50 to 500 µM
[3]; MCL of NTR-expressing and parental HCT116 cells
  bystander property (in words): lack any measurable bystander effect; also recorded: zero bystander property
[3]; hyperoxic (95% O2) MCLs, at concentrations achievable in α-MEM+10% FBS, activator fraction differs per experiment
  estimated bystander effect efficiency (BEE): 0%
[4]
  AUC: 1200 µM·h

## CS(=O)(=O)OCCN(CCBr)c1c(C(=O)NCCOP(=O)(O)O)cc([N+](=O)[O-])cc1[N+](=O)[O-] [PR-104, 2-((2-bromoethyl)(2,4-dinitro-6-((2-(phosphonooxy)ethyl)carbamoyl)phenyl)amino)ethyl methanesulfonate]
[5]
  PR-104 dependent growth delay, nfsB versus nfsA tumours (in words): similar, with no statistically significant difference

## O=[N+]([O-])c1nccn1CC(O)CF (stereo not drawn) [F-MISO, 1-fluoro-3-(2-nitro-1H-imidazol-1-yl)propan-2-ol]
NfsB(Ec)
  activity with 2-NI substrate (in words): substantial activity
[6]
  sensitivity to 2-nitroimidazoles (in words): modest sensitivity
[7]
  sensitivity to 2-nitroimidazoles (in words): modest sensitivity
